Measurements published in patent US4673684A, “Amide derivatives and 5-lipoxygenase inhibitors containing the same as an active ingredient” (Terumo Corporation, priority 1984, dated 1987).

The molecules below were run against T1, 5-lipoxygenase (Mus musculus, UniProt P48999) (assay: 5-Lipoxygenase-inhibiting Activity (decrease in 5-HETE and LTB4 formed from radiolabelled arachidonic acid, enzyme solution from mouse mastcytoma cells P-815)). Details: 5-HETE and LTB4 formation; mouse mastcytoma P-815 enzyme solution; 37° C., 5 min; pH 7.4; with indomethacin; read-out: 50% Inhibitory concentration IC50.
T1 construct: The supernatant is used as a 5-lipogenase enzyme solution; endogenous in cells
T1 sequence (P48999 1-674): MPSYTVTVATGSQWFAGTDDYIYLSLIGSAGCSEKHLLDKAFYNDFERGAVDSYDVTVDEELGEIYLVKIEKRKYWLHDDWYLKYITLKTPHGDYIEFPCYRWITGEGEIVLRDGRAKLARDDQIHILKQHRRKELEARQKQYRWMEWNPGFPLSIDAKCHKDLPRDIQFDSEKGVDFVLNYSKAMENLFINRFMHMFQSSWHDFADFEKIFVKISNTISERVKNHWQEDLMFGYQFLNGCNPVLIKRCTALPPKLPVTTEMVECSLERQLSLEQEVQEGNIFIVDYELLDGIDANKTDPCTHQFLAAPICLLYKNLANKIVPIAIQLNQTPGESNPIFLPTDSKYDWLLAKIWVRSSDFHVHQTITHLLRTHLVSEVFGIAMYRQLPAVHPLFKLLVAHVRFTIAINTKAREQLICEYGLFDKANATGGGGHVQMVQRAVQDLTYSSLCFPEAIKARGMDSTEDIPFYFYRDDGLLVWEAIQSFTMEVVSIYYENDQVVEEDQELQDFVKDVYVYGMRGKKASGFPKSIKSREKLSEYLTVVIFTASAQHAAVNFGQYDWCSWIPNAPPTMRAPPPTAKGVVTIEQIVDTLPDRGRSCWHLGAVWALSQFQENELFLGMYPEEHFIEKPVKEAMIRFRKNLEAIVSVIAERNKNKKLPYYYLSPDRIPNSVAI
Assay type: biochemical
Outline: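 Enzyme is sonicated 10,000 rpm supernatant of P-815 mouse mastocytoma cells, reacted 5 min at 37 °C with radiolabelled arachidonic acid, indomethacin and CaCl2 in pH 7.4 phosphate buffer. 5-HETE and LTB4 separated by TLC and counted by scintillation; IC50 or IC30 is concentration reducing product to 50% or 30% of control.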

Row | Structure (SMILES) | IC50 [nM]
1 | COc1ccc(/C=C/C(=O)N2CCN(CCCOC(C)(c3ccccc3)c3ccc(Cl)cc3)CC2)cc1OC (stereo not shown) [Example 104, N-[3-(3,4-dimethoxy)phenyl-2-propenoyl]-N'-[3-[1-phenyl-1-(p-chlorophenyl)ethoxy]propyl]piperazine] | 10000
2 | COc1cc(/C=C/C(=O)N2CCN(CCOC(C)(c3ccccc3)c3ccc(Cl)cc3)CC2)cc(OC)c1O (stereo not shown) [Example 105, N-[3-(3,5-dimethoxy-4-hydroxyphenyl)-2-propenoyl]-N'-[2-[1-phenyl-1-(p-chlorophenyl)ethoxy]ethyl]piperazine] | 10
3 | COc1cc(/C=C/C(=O)N2CCN(CCCOC(C)(c3ccccc3)c3ccc(Cl)cc3)CC2)cc(OC)c1O (stereo not shown) [Example 106, N-[3-(3,5-dimethoxy-4-hydroxy)phenyl-2-propenoyl]-N'-[3-[1-phenyl-1-(p-chlorophenyl)ethoxy]propyl]piperazine] | 10
4 | CC(OCCN1CCN(C(=O)/C=C/C=C/c2ccc(O)c(O)c2)CC1)(c1ccccc1)c1ccc(Cl)cc1 (stereo not shown) [Example 107, N-[5-(3,4-dihydroxyphenyl)-2,4-pentadienoyl]-N-[2-[1-phenyl-1-(p-chlorophenyl)-ethoxy]ethyl]piperazine] | 10
5 | CC(OCCCN1CCN(C(=O)/C=C/C=C/c2ccc(O)c(O)c2)CC1)(c1ccccc1)c1ccc(Cl)cc1 (stereo not shown) [Example 108, N-[5-(3,4-dihydroxy)phenyl-2,4-pentadienoyl]-N'-[3-[1-phenyl-1-(p-chlorophenyl)ethoxy]propyl]piperazine] | 8
6 | Cn1c(=O)c2c(ncn2CCN2CCN(C(=O)/C=C/C=C/c3ccc(O)c(O)c3)CC2)n(C)c1=O [Example 109] | 2000
7 | COc1cc(/C=C/C=C/C(=O)N2CCN(CCOC(C)(c3ccccc3)c3ccc(Cl)cc3)CC2)ccc1O (stereo not shown) [Example 110, N-[5-(3-methoxy-4-hydroxyphenyl)-2,4-pentadienoyl]-N'-[2-[1-phenyl-1-(p-chlorophenyl)ethoxy]ethyl]piperazine] | 10
8 | COc1cc(/C=C/C=C/C(=O)N2CCN(CCCOC(C)(c3ccccc3)c3ccc(Cl)cc3)CC2)ccc1O (stereo not shown) [Example 111, N-[5-(3-methoxy-4-hydroxy)phenyl-2,4-pentadienoyl)-N'-[3-[1-phenyl-1-(p-chlorophenyl)ethoxy]propyl]piperazine] | 10
9 | COc1cc(/C=C/C=C/C(=O)N2CCN(CCn3cnc4c3c(=O)n(C)c(=O)n4C)CC2)ccc1O [Example 112] | 2000
10 | COc1cc(/C=C/C=C/C(=O)N2CCN(CCOC(C)(c3ccccc3)c3ccc(Cl)cc3)CC2)cc(OC)c1O (stereo not shown) [Example 113, N-[5-(3,5-dimethoxy-4-hydroxyphenyl]-2,4-pentadienoyl]-N'-[2-[1-phenyl-1-(p-chlorophenyl)ethoxy]ethyl]piperazine] | 20
11 | COc1cc(/C=C/C=C/C(=O)N2CCN(CCn3cnc4c3c(=O)n(C)c(=O)n4C)CC2)cc(OC)c1O [Example 114] | 2000
12 | COc1cc(/C=C/C=C/C(=O)N2CCN(CCn3cnc4c3c(=O)n(C)c(=O)n4C)CC2)cc(OC)c1OC [Example 115, 7-[2-[4-[5-(3,4,5-trimethoxyphenyl)-2,4-pentadienoyl]piperazin-1-yl]ethyl]theophylline] | 20000
13 | COc1cc(/C=C/C(=O)NCCN2CCC(OC(c3ccccc3)c3ccccc3)CC2)ccc1O [Example 116, 1-[2-[3-(3-methoxy-4-hydroxyphenyl)-2-propenoyl]aminoethyl]-4-benzhydroxypiperidine] | 400
14 | COc1cc(/C=C/C(=O)NCCN2CCC(OC(c3ccccc3)c3ccccc3)CC2)cc(OC)c1O [Example 117, 1-[2-[3-(3,5-dimethoxy-4-hydroxyphenyl)-2-propenoyl]aminoethyl]-4-benzhydroxypiperidine] | 20
15 | O=C(/C=C/C=C/c1ccc(O)c(O)c1)NCCN1CCC(OC(c2ccccc2)c2ccccc2)CC1 [Example 118] | 30
16 | COc1cc(/C=C/C=C/C(=O)NCCN2CCC(OC(c3ccccc3)c3ccccc3)CC2)ccc1O [Example 119, 1-[2-[5-(3-methoxy-4-hydroxyphenyl)-2,4-pentadienoyl]aminoethyl]4-benzhydroxypiperidine] | 9

Row | Structure (SMILES) | IC50 [nM]
17 | COc1cc(/C=C/C=C/C(=O)NCCN2CCC(OC(c3ccccc3)c3ccccc3)CC2)cc(OC)c1O [Example 120, 1-[2-[5-(3,5-dimethoxy-4-hydroxyphenyl)-2,4-pentadienoyl]aminoethyl]-4-benzhydroxypiperidine] | 10
18 | Cn1c(=O)c2c(ncn2CCCCN2CCN(C(=O)/C=C/c3ccc(O)c(O)c3)CC2)n(C)c1=O [Example 121, 7-[4-[4-{3-(3,4-dihydroxyphenyl)-2-propenoyl}piperazi-1-nyl]butyl]theophylline] | 5000
19 | O=C(/C=C/c1ccc(O)c(O)c1)NCCCN1CCC(OC(c2ccccc2)c2ccccc2)CC1 [Example 122, 1-[3-[3-(3,4-dihydroxyphenyl)-2-propenoyl]aminopropyl]-4-benzhydroxypiperidine] | 10
20 | COc1cc(/C=C/C(=O)N2CCN(CCCn3cnc4c3c(=O)n(C)c(=O)n4C)CC2)ccc1O [Example 123] | 10000
21 | COc1cc(/C=C/C(=O)NCCCCN2CCC(OC(c3ccccc3)c3ccccc3)CC2)ccc1O [Example 124, 1-[4-[3-(3-methoxy-4-hydroxyphenyl)-2-propenoyl]aminobutyl]-4-benzhydroxypiperidine] | 200
22 | COc1cc(/C=C/C(=O)N2CCN(CCCCn3cnc4c3c(=O)n(C)c(=O)n4C)CC2)cc(OC)c1O [Example 125, 7-[4-[4-{3-(3,5-dimethoxy-4-hydroxyphenyl)-2-propenoyl}piperazi-1-nyl]butyl]theophylline] | 7000
23 | COc1cc(/C=C/C(=O)NCCCN2CCC(OC(c3ccccc3)c3ccccc3)CC2)cc(OC)c1O [Example 126, 1-[3-{3-(3,5-dimethoxy-4-hydroxyphenyl)-2-propenoyl}aminopropyl]-4-benzhydroxypiperidine] | 10
24 | COc1cc(/C=C/C(=O)N2CCN(CCCn3cnc4c3c(=O)n(C)c(=O)n4C)CC2)cc(OC)c1OC [Example 127, 7-[3-[4-[3-(3,4,5-trimethoxyphenyl)-2-propenoyl]piperazi-1-nyl]-1-propyl]theopylline] | 30000
25 | Cn1c(=O)c2c(ncn2CCCN2CCN(C(=O)/C=C/C=C/c3ccc(O)c(O)c3)CC2)n(C)c1=O [Example 128, 7-[3-[4-[5-(-dihydroxyphenyl)-2,4-pentadienoyl]piperazi-1-nyl]-1-propyl]theophylline] | 1000
26 | O=C(/C=C/C=C/c1ccc(O)c(O)c1)NCCCCN1CCC(OC(c2ccccc2)c2ccccc2)CC1 [Example 129, 1-[4-[5-(3,4-dihydroxyphenyl)-2,4-pentadienoyl]aminobutyl]-4-benzhydroxypiperidine] | 20
27 | COc1cc(/C=C/C=C/C(=O)N2CCN(CCCCn3cnc4c3c(=O)n(C)c(=O)n4C)CC2)ccc1O [Example 130] | 1000
28 | COc1cc(/C=C/C=C/C(=O)NCCCN2CCC(OC(c3ccccc3)c3ccccc3)CC2)ccc1O [Example 131] | 7
29 | COc1cc(/C=C/C=C/C(=O)N2CCN(CCCCn3cnc4c3c(=O)n(C)c(=O)n4C)CC2)cc(OC)c1O [Example 132] | 1000
30 | COc1cc(/C=C/C=C/C(=O)NCCCCN2CCC(OC(c3ccccc3)c3ccccc3)CC2)cc(OC)c1O [Example 133, 1-[4-[5-(3,5-dimethoxy-4-hydroxyphenol)-2,4-pentadienoyl]aminobutyl]-4-benzydroxypiperidine] | 20
31 | COc1cc(/C=C/C=C/C(=O)N2CCN(CCCn3cnc4c3c(=O)n(C)c(=O)n4C)CC2)cc(OC)c1OC [Example 134, 7-[3-[4-[5-(3,4,5-trimethoxyphenyl)-2,4-pentadienoyl]piperazi-1-nyl]-1-propyl]theophylline] | 20000
